Results on 12 molecules are retold here after patent US9765105B2, “Macrolide compound” (Pulike Biological Engineering, Inc., priority 2013, dated 2017).

The structures appear in SMILES notation.

Assay in all cases: in vitro susceptibility, MIC by mini broth dilution
Common to all, as to format: cell-based
For orientation: Dilution methods test growth across graded concentrations, often in twofold steps.

In test [1] the test system is Staphylococcus aureus CVCC26003. The note with it: strain CVCC26003. The essentials:
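MICs were determined by mini broth dilution under NCCLS standards in CAMHB, using revived S. aureus CVCC26003 subcultured 20 h at 35° C. Compounds were two-fold serially diluted in DMSO across 11 wells, with duplicate rows. Bacterial suspension was diluted 1:200 in medium before inoculation.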

Test [2] deals with Actinobacillus pleuropneumoniae CVCC262. Particulars: strain CVCC262. The essentials: (§1)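 Bacteria were revived from −20° C stocks and streaked twice on solid medium, each time grown 20 h at 35° C. Compounds were double-diluted in DMSO across 11 wells and tested in two parallel rows. The bacterial suspension was diluted 1:200 with liquid medium before MIC determination by mini broth dilution.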

A further test concerns Haemophilus parasuis. The method, boiled down: as §1
For test [3], the system named is Pasteurella multocida CVCC399. The note with it: strain CVCC399. The method, boiled down: as §1
Test [4] concerns Streptococcus equines CVCC556. The note with it: strain CVCC556. The method, boiled down: as §1

As to `CCCN1CC(C)C(O)C(C)(O)C(CC)OC(=O)C(C)C(OC2CC(C)(OC)C(O)(CNc3n[nH]c(S)n3)C(C)O2)C(C)C(OC2OC(C)CC(N(C)C)C2O)C(C)(O)CC1C` (stereo not drawn) [syzx-210], in test [1], the “MIC values, Staphylococcus aureus CVCC26003” value was 2 ug/mi. Besides, the “MIC values, Actinobacillus pleuropneumoniae CVCC262” value in test [2] turned out to be 0.5 ug/mi. In addition, the “MIC values, Haemophilus parasuis” value with Haemophilus parasuis turned out to be 0.5 ug/mi. For the same molecule, the “MIC values, Pasteurella multocida CVCC399” value in test [3] is given as 4 ug/mi. The “MIC values, Streptococcus equines CVCC556” value in test [4] is reported as 0.25 ug/mi.

Take `CC[C@H]1OC(=O)[C@H](C)[C@@H](O[C@H]2C[C@@](C)(OC)[C@](O)(CNc3ccc4ncccc4c3)[C@H](C)O2)[C@H](C)[C@@H](O[C@@H]2O[C@H](C)C[C@H](N(C)C)[C@H]2O)[C@](C)(O)C[C@@H](C)NC[C@H](C)[C@@H](O)[C@]1(C)O` [syzx-99, (2R,3S,4R,5S,8R,10R,11R,12S,13S,14R)-13-[(2,6-dideoxy-3-C-methyl-3-O-methyl-4-C-[(quinolin-6-yl-amino)-methyl]-α-L-ribopyranosyl)oxy]-2-ethyl-3,4,10-trihydroxy-3,5,8,10,12,14-hexamethyl-11-[[3,4,6-trideoxy-3-(dimethylamino)-β-D-xylo-hexopyranosy]oxy]-1-oxo-7-azacyclopentadecan-15-one]: the “MIC values, Staphylococcus aureus CVCC26003” value in test [1] worked out at 4 ug/mi. The “MIC values, Actinobacillus pleuropneumoniae CVCC262” value in test [2] is reported as 128 ug/mi. In the test with Haemophilus parasuis, the “MIC values, Haemophilus parasuis” value is 4 ug/mi. The “MIC values, Pasteurella multocida CVCC399” value in test [3] is 8 ug/mi. The “MIC values, Streptococcus equines CVCC556” value in test [4] turned out to be 2 ug/mi.

For `CCCN1C[C@H](C)[C@@H](O)[C@](C)(O)[C@@H](CC)OC(=O)[C@H](C)[C@@H](O[C@H]2C[C@@](C)(OC)[C@](O)(CNCCc3ccncc3)[C@H](C)O2)[C@H](C)[C@@H](O[C@@H]2O[C@H](C)C[C@H](N(C)C)[C@H]2O)[C@](C)(O)C[C@H]1C` [syzx-164], the “MIC values, Staphylococcus aureus CVCC26003” value in test [1] is reported as 0.25 ug/mi. The “MIC values, Actinobacillus pleuropneumoniae CVCC262” value in test [2] came out at 0.25 ug/mi. The “MIC values, Haemophilus parasuis” value against Haemophilus parasuis is 0.25 ug/mi. Further, in test [3], the “MIC values, Pasteurella multocida CVCC399” value worked out at 2 ug/mi. Further, the “MIC values, Streptococcus equines CVCC556” value in test [4] was 0.5 ug/mi.

Take `CC[C@H]1OC(=O)[C@H](C)[C@@H](O[C@H]2C[C@@](C)(OC)[C@](O)(Cn3cccc3)[C@H](C)O2)[C@H](C)[C@@H](O[C@@H]2O[C@H](C)C[C@H](N(C)C)[C@H]2O)[C@](C)(O)C[C@@H](C)NC[C@H](C)[C@@H](O)[C@]1(C)O` [syzx-7, (2R,3S,4R,5S,8R,10R,11R,12S,13S,14R)-13-[(2,6-dideoxy-3-C-methyl-3-O-methyl-4-C-[(pyrryl)methyl]-α-L-ribopyranosyl)oxy]-2-ethyl-3,4,10-trihydroxy-3,5,8,10,12,14-hexamethyl-11-[[3,4,6-trideoxy-3-(dimethylamino)-β-D-xylo-hexopyranosy]oxy]-1-oxa-7-azacyclopentadecan-15-one]: in test [1], the “MIC values, Staphylococcus aureus CVCC26003” value is on record as “≦0.25 ug/mi”. The “MIC values, Actinobacillus pleuropneumoniae CVCC262” value in test [2] is reported as 2 ug/mi. Besides, in the test with Haemophilus parasuis, the “MIC values, Haemophilus parasuis” value was “≦0.25 ug/mi”. In test [3], the “MIC values, Pasteurella multocida CVCC399” value is on record as 0.25 ug/mi. Also, the “MIC values, Streptococcus equines CVCC556” value in test [4] is “≦0.25 ug/mi”.

For `CCCN1C[C@H](C)[C@@H](O)[C@](C)(O)[C@@H](CC)OC(=O)[C@H](C)[C@@H](O[C@H]2C[C@@](C)(OC)[C@](O)(CNCc3ccc(F)cc3)[C@H](C)O2)[C@H](C)[C@@H](O[C@@H]2O[C@H](C)C[C@H](N(C)C)[C@H]2O)[C@](C)(O)C[C@H]1C` [syzx-108], the “MIC values, Staphylococcus aureus CVCC26003” value in test [1] worked out at 0.25 ug/mi. For the same molecule, the “MIC values, Actinobacillus pleuropneumoniae CVCC262” value in test [2] amounted to 0.25 ug/mi. The “MIC values, Haemophilus parasuis” value in the test with Haemophilus parasuis came to 0.25 ug/mi. The “MIC values, Pasteurella multocida CVCC399” value in test [3] came to 1 ug/mi. Also, the “MIC values, Streptococcus equines CVCC556” value in test [4] is 0.25 ug/mi.

For the molecule `CC[C@H]1OC(=O)[C@H](C)[C@@H](OC2CC(C)(OC)C(O)(CNC(C)CC(=O)O)C(C)O2)[C@H](C)[C@@H](O[C@@H]2O[C@H](C)C[C@H](N(C)C)[C@H]2O)[C@](C)(O)C[C@@H](C)NC[C@H](C)[C@@H](O)[C@]1(C)O` (stereo partly drawn) [syzx-50, 3-({(2R,3S,4R,5S,8R,10R,11R,12S,13S,14R)-6-[-11-[[3,4,6-trideoxy-3-(dimethylamino)-β-D-xylo-hexopyranosy]oxy]-2-ethyl-3,4,10-trihydroxy-3,5,8,10,12,14-hexamethyl-1-oxa-7-azacyclopentadecan-15-one-13-yl-oxy]-3-hydroxy-4-methoxy-2,4-dimethyl-tetrahydropyran-3-yl-methyl}-amino)-butyric acid], the “MIC values, Staphylococcus aureus CVCC26003” value in test [1] amounted to 1 ug/mi. Moreover, in test [2], the “MIC values, Actinobacillus pleuropneumoniae CVCC262” value is on record as 0.5 ug/mi. Also, in the test on Haemophilus parasuis, the “MIC values, Haemophilus parasuis” value was 0.5 ug/mi. Further, the “MIC values, Pasteurella multocida CVCC399” value in test [3] worked out at 1 ug/mi. Also, the “MIC values, Streptococcus equines CVCC556” value in test [4] is 1 ug/mi.

For `CCCN1C[C@H](C)[C@@H](O)[C@](C)(O)[C@@H](CC)OC(=O)[C@H](C)[C@@H](O[C@H]2C[C@@](C)(OC)[C@](O)(CNC(=O)C(F)(F)F)[C@H](C)O2)[C@H](C)[C@@H](O[C@@H]2O[C@H](C)C[C@H](N(C)C)[C@H]2O)[C@](C)(O)C[C@H]1C` [syzx-137], the “MIC values, Staphylococcus aureus CVCC26003” value in test [1] was found to be 0.5 ug/mi. Also, in test [2], the “MIC values, Actinobacillus pleuropneumoniae CVCC262” value is 0.5 ug/mi. Besides, in the test on Haemophilus parasuis, the “MIC values, Haemophilus parasuis” value was 0.5 ug/mi. The “MIC values, Pasteurella multocida CVCC399” value in test [3] is on record as 2 ug/mi. Further, in test [4], the “MIC values, Streptococcus equines CVCC556” value came out at 1 ug/mi.

As for `CCCN1C[C@H](C)[C@@H](O)[C@](C)(O)[C@@H](CC)OC(=O)[C@H](C)[C@@H](O[C@H]2C[C@@](C)(OC)[C@](O)(CNC(CC)CO)[C@H](C)O2)[C@H](C)[C@@H](O[C@@H]2O[C@H](C)C[C@H](N(C)C)[C@H]2O)[C@](C)(O)C[C@H]1C` (stereo partly drawn) [syzx-151], in test [1], the “MIC values, Staphylococcus aureus CVCC26003” value came to 0.25 ug/mi. Also, the “MIC values, Actinobacillus pleuropneumoniae CVCC262” value in test [2] came out at 0.25 ug/mi. In the test on Haemophilus parasuis, the “MIC values, Haemophilus parasuis” value amounted to 0.25 ug/mi. Besides, in test [3], the “MIC values, Pasteurella multocida CVCC399” value came out at 0.5 ug/mi. The “MIC values, Streptococcus equines CVCC556” value in test [4] is listed as 0.25 ug/mi.

Turning to `CC[C@H]1OC(=O)[C@H](C)[C@@H](O[C@H]2C[C@@](C)(OC)[C@](O)(CNCCCCl)[C@H](C)O2)[C@H](C)[C@@H](O[C@@H]2O[C@H](C)C[C@H](N(C)C)[C@H]2O)[C@](C)(O)C[C@@H](C)NC[C@H](C)[C@@H](O)[C@]1(C)O` [syzx-75, (2R,3S,4R,5S,8R,10R,11R,12S,13S,14R)-13-[(2,6-dideoxy-3-C-methyl-3-O-methyl-4-C-[(3-chloropropyl-amino)-methyl]-α-L-ribopyranosyl)oxy]-2-ethyl-3,4,10-trihydroxy-3,5,8,10,12,14-hexamethyl-11-[[3,4,6-trideoxy-3-(dimethylamino)-β-D-xylo-hexopyranosy]oxy]-1-oxa-7-azacyclopentadecan-15-one], in test [1], the “MIC values, Staphylococcus aureus CVCC26003” value is 4 ug/mi. In addition, the “MIC values, Actinobacillus pleuropneumoniae CVCC262” value in test [2] was found to be 64 ug/mi. The “MIC values, Haemophilus parasuis” value against Haemophilus parasuis turned out to be 4 ug/mi. Further, the “MIC values, Pasteurella multocida CVCC399” value in test [3] was found to be 8 ug/mi. Further, the “MIC values, Streptococcus equines CVCC556” value in test [4] is on record as 4 ug/mi.

Turning to `CCOCCCNCC1(O)C(C)OC(OC2C(C)C(=O)OC(CC)C(C)(O)C(O)C(C)CNC(C)CC(C)(O)C(OC3OC(C)CC(N(C)C)C3O)C2C)CC1(C)OC` [syzx-22, (2R,3S,4R,5S,8R,10R,11R,12S,13S,14R)-13-[(2,6-dideoxy-3-C-methyl-3-O-methyl-4-C-[(3-ethoxypropyl)amino)methyl]-α-L-ribopyranosyl)oxy]-2-ethyl-3,4,10-trihydroxy-3,5,8,10,12,14-hexamethyl-11-[[3,4,6-trideoxy-3-(dimethylamino)-β-D-xylo-hexopyranosy]oxy]-1-oxa-7-azacyclopentadecan-15-one], the “MIC values, Staphylococcus aureus CVCC26003” value in test [1] is recorded as 1 ug/mi. Besides, in test [2], the “MIC values, Actinobacillus pleuropneumoniae CVCC262” value turned out to be 8 ug/mi. In addition, the “MIC values, Haemophilus parasuis” value in the test on Haemophilus parasuis is given as “≦0.25 ug/mi”. Further, in test [3], the “MIC values, Pasteurella multocida CVCC399” value is 0.5 ug/mi. Besides, the “MIC values, Streptococcus equines CVCC556” value in test [4] was determined as 0.5 ug/mi.

In the case of `CCC1OC(=O)C(C)C(OC2CC(C)(OC)C(O)(CNc3cc(C)ccc3F)C(C)O2)C(C)C(OC2OC(C)CC(N(C)C)C2O)C(C)(O)CC(C)NCC(C)C(O)C1(C)O` [syzx-96, (2R,3S,4R,5S,8R,10R,11R,12S,13S,14R)-13-[(2,6-dideoxy-3-C-methyl-3-O-methyl-4-C-[(2-fluoro-5-methylphenyl-amino)-methyl]-α-L-ribopyranosyl)oxy]-2-ethyl-3,4,10-trihydroxy-3,5,8,10,12,14-hexamethyl-11-[[3,4,6-trideoxy-3-(dimethylamino)-β-D-xylo-hexopyranosy]oxy]-1-oxa-7-azacyclopentadecan-15-one], the “MIC values, Staphylococcus aureus CVCC26003” value in test [1] came out at 1 ug/mi. Further, the “MIC values, Actinobacillus pleuropneumoniae CVCC262” value in test [2] was found to be 0.5 ug/mi. Further, the “MIC values, Haemophilus parasuis” value against Haemophilus parasuis came out at 0.5 ug/mi. The “MIC values, Pasteurella multocida CVCC399” value in test [3] stood at 2 ug/mi. Further, the “MIC values, Streptococcus equines CVCC556” value in test [4] amounted to 0.25 ug/mi.

Regarding `CCCN1CC(C)C(O)C(C)(O)C(CC)OC(=O)C(C)C(OC2CC(C)(OC)C(O)(CNNc3ccc(F)cc3)C(C)O2)C(C)C(OC2OC(C)CC(N(C)C)C2O)C(C)(O)CC1C` (stereo not drawn) [syzx-181], the “MIC values, Staphylococcus aureus CVCC26003” value in test [1] stood at 0.25 ug/mi. Moreover, in test [2], the “MIC values, Actinobacillus pleuropneumoniae CVCC262” value came out at 0.5 ug/mi. The “MIC values, Haemophilus parasuis” value in the test on Haemophilus parasuis is recorded as 0.25 ug/mi. In test [3], the “MIC values, Pasteurella multocida CVCC399” value is 1 ug/mi. Besides, the “MIC values, Streptococcus equines CVCC556” value in test [4] is 0.25 ug/mi.
